Measured values reported in PubChem BioAssay (NCI).
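Assay format: 96-well plates, 48-hour exposure. TGI: concentration producing complete growth inhibition.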

Legend:
Assay in all cases: inhibition of tumour cell growth, NCI panel, 48 h
SW-620 colon = tested on: SW-620 colon
A549 NSCLC = tested on: A549 NSCLC
CCRF-CEM leukemia = tested on: CCRF-CEM leukemia
HOP-18 NSCLC = tested on: HOP-18 NSCLC
XF 498 CNS = tested on: XF 498 CNS
TK-10 renal = tested on: TK-10 renal
DMS 114 small cell lung = tested on: DMS 114 small cell lung
IGROV1 ovarian = tested on: IGROV1 ovarian
OVCAR-3 ovarian = tested on: OVCAR-3 ovarian
ACHN renal = tested on: ACHN renal
SK-MEL-2 melanoma = tested on: SK-MEL-2 melanoma
A498 renal = tested on: A498 renal
SR leukemia = tested on: SR leukemia
NCI-H23 lung = tested on: NCI-H23 lung
786-0 renal = tested on: 786-0 renal
MOLT-4 leukemia = tested on: MOLT-4 leukemia
KM20L2 colon = tested on: KM20L2 colon
SNB-19 CNS = tested on: SNB-19 CNS
SK-OV-3 ovarian = tested on: SK-OV-3 ovarian
NCI-H522 lung = tested on: NCI-H522 lung
RPMI-8226 leukemia = tested on: RPMI-8226 leukemia
COLO 205 colon = tested on: COLO 205 colon
SF-295 CNS = tested on: SF-295 CNS
SN12C renal = tested on: SN12C renal
SF-268 CNS = tested on: SF-268 CNS
DLD-1 colon = tested on: DLD-1 colon
SNB-78 CNS = tested on: SNB-78 CNS
NCI-H226 lung = tested on: NCI-H226 lung
MALME-3M melanoma = tested on: MALME-3M melanoma
UACC-62 melanoma = tested on: UACC-62 melanoma
SK-MEL-5 melanoma = tested on: SK-MEL-5 melanoma
HCC-2998 colon = tested on: HCC-2998 colon
HCT-116 colon = tested on: HCT-116 colon
SF-539 CNS = tested on: SF-539 CNS
OVCAR-4 ovarian = tested on: OVCAR-4 ovarian
OVCAR-5 ovarian = tested on: OVCAR-5 ovarian
HOP-62 NSCLC = tested on: HOP-62 NSCLC
UACC-257 melanoma = tested on: UACC-257 melanoma
M14 melanoma = tested on: M14 melanoma
CAKI-1 renal = tested on: CAKI-1 renal
EKVX NSCLC = tested on: EKVX NSCLC
KM12 colon = tested on: KM12 colon
U251 CNS = tested on: U251 CNS
SK-MEL-28 melanoma = tested on: SK-MEL-28 melanoma
K-562 leukemia = tested on: K-562 leukemia
LOX IMVI melanoma = tested on: LOX IMVI melanoma
SNB-75 CNS = tested on: SNB-75 CNS
DMS 273 small cell lung = tested on: DMS 273 small cell lung
HL-60(TB) leukemia = tested on: HL-60(TB) leukemia
NCI-H460 lung = tested on: NCI-H460 lung
HCT-15 colon = tested on: HCT-15 colon
HT29 colon = tested on: HT29 colon
OVCAR-8 ovarian = tested on: OVCAR-8 ovarian
LXFL 529 NSCLC = tested on: LXFL 529 NSCLC
UO-31 renal = tested on: UO-31 renal
M19-MEL melanoma = tested on: M19-MEL melanoma
HOP-92 NSCLC = tested on: HOP-92 NSCLC
RXF 393 renal = tested on: RXF 393 renal

Measured: TGI

C/C(CN1C(=O)c2ccccc2C1=O)=N\NS(=O)(=O)c1ccc(F)cc1
> 100 µM: SW-620 colon | A549 NSCLC | CCRF-CEM leukemia | HOP-18 NSCLC | XF 498 CNS | TK-10 renal | DMS 114 small cell lung | IGROV1 ovarian | OVCAR-3 ovarian | ACHN renal | SK-MEL-2 melanoma | A498 renal | SR leukemia | NCI-H23 lung | 786-0 renal | MOLT-4 leukemia | KM20L2 colon | SNB-19 CNS | SK-OV-3 ovarian | NCI-H522 lung | RPMI-8226 leukemia | COLO 205 colon | SF-295 CNS | SN12C renal | SF-268 CNS | DLD-1 colon | SNB-78 CNS | NCI-H226 lung | MALME-3M melanoma | UACC-62 melanoma | SK-MEL-5 melanoma | HCC-2998 colon | HCT-116 colon | SF-539 CNS | OVCAR-4 ovarian | OVCAR-5 ovarian | HOP-62 NSCLC | UACC-257 melanoma | M14 melanoma | CAKI-1 renal | EKVX NSCLC | KM12 colon | U251 CNS | SK-MEL-28 melanoma | K-562 leukemia | LOX IMVI melanoma | SNB-75 CNS | DMS 273 small cell lung | HL-60(TB) leukemia | NCI-H460 lung | HCT-15 colon | HT29 colon | OVCAR-8 ovarian | LXFL 529 NSCLC | UO-31 renal

COc1cccc(/C=C2\C(=O)N(C(=O)Cc3ccccc3)N=C2C)c1
> 100 µM: SW-620 colon | A549 NSCLC | CCRF-CEM leukemia | HOP-18 NSCLC | XF 498 CNS | TK-10 renal | DMS 114 small cell lung | OVCAR-3 ovarian | ACHN renal | SK-MEL-2 melanoma | SR leukemia | NCI-H23 lung | 786-0 renal | MOLT-4 leukemia | SNB-19 CNS | NCI-H522 lung | RPMI-8226 leukemia | COLO 205 colon | SF-295 CNS | SN12C renal | SF-268 CNS | DLD-1 colon | SNB-78 CNS | M19-MEL melanoma | NCI-H226 lung | MALME-3M melanoma | SK-MEL-5 melanoma | HCC-2998 colon | HCT-116 colon | SF-539 CNS | OVCAR-4 ovarian | OVCAR-5 ovarian | HOP-62 NSCLC | UACC-257 melanoma | M14 melanoma | CAKI-1 renal | EKVX NSCLC | KM12 colon | U251 CNS | SK-MEL-28 melanoma | K-562 leukemia | LOX IMVI melanoma | SNB-75 CNS | DMS 273 small cell lung | HL-60(TB) leukemia | HCT-15 colon | HT29 colon | OVCAR-8 ovarian | UO-31 renal

CC12C(=O)N(CCN)C(=O)C1C1c3ccccc3C2c2ccccc21 (stereo not given)
98.4 µM: HOP-92 NSCLC
> 100 µM: SW-620 colon | A549 NSCLC | CCRF-CEM leukemia | HOP-18 NSCLC | XF 498 CNS | TK-10 renal | DMS 114 small cell lung | IGROV1 ovarian | OVCAR-3 ovarian | ACHN renal | SK-MEL-2 melanoma | A498 renal | NCI-H23 lung | 786-0 renal | MOLT-4 leukemia | KM20L2 colon | SNB-19 CNS | SK-OV-3 ovarian | NCI-H522 lung | RPMI-8226 leukemia | COLO 205 colon | SF-295 CNS | SN12C renal | SF-268 CNS | DLD-1 colon | SNB-78 CNS | M19-MEL melanoma | NCI-H226 lung | MALME-3M melanoma | UACC-62 melanoma | SK-MEL-5 melanoma | HCC-2998 colon | HCT-116 colon | SF-539 CNS | OVCAR-4 ovarian | OVCAR-5 ovarian | HOP-62 NSCLC | UACC-257 melanoma | M14 melanoma | CAKI-1 renal | EKVX NSCLC | KM12 colon | U251 CNS | SK-MEL-28 melanoma | K-562 leukemia | SNB-75 CNS | DMS 273 small cell lung | HL-60(TB) leukemia | NCI-H460 lung | HCT-15 colon | HT29 colon | OVCAR-8 ovarian | LXFL 529 NSCLC | UO-31 renal

CCOC(=O)C1(Cc2ccc3ccccc3c2)CCCCCN1 (stereo not given)
88.9 µM: SK-MEL-28 melanoma
82.1 µM: UO-31 renal
34.7 µM: NCI-H460 lung
93.8 µM: M19-MEL melanoma
56.9 µM: DLD-1 colon
41.2 µM: XF 498 CNS
57 µM: KM20L2 colon
> 100 µM: A549 NSCLC | HOP-18 NSCLC | TK-10 renal | IGROV1 ovarian | OVCAR-3 ovarian | ACHN renal | NCI-H23 lung | SNB-19 CNS | SK-OV-3 ovarian | SN12C renal | SF-268 CNS | SNB-78 CNS | UACC-62 melanoma | OVCAR-4 ovarian | HOP-62 NSCLC | CAKI-1 renal | EKVX NSCLC | U251 CNS | OVCAR-8 ovarian | LXFL 529 NSCLC
34.4 µM: COLO 205 colon
33.9 µM: MALME-3M melanoma
87.4 µM: DMS 114 small cell lung
39.6 µM: LOX IMVI melanoma
52 µM: HL-60(TB) leukemia
83.2 µM: RXF 393 renal
55.4 µM: HOP-92 NSCLC
90.7 µM: MOLT-4 leukemia
64.9 µM: SW-620 colon
38.4 µM: DMS 273 small cell lung
57.3 µM: HCC-2998 colon
34.2 µM: 786-0 renal
30.2 µM: SNB-75 CNS
48.1 µM: M14 melanoma
68.7 µM: K-562 leukemia
27.6 µM: RPMI-8226 leukemia
41.4 µM: HCT-15 colon
39 µM: SF-295 CNS
26.9 µM: HT29 colon
